Experimental data: ChEMBL document CHEMBL5260809, “Isoxazole ring as a useful scaffold in a search for new therapeutic agents” (Eur J Med Chem, 2017)
≈ marks a conversion by molar mass, not a printed value.

Tests used:
MDA-MB-231 = assay: Antimigratory activity against human MDA-MB-231 cells; type: functional, cell-based
[1] = Induction of sodium-22 influx in human TE-671 cells; type: functional, cell-based
Rattus norvegicus [2] = species on record: Rattus norvegicus; assay: Protective index, ratio of TD50 for rat to ED50 for anticonvulsant activity in rat; type: functional
[3] = Toxicity in rat; conditions: in vivo
Rattus norvegicus [4] = species on record: Rattus norvegicus; assay: Anticonvulsant activity in rat maximal electroshock seizure model; type: functional
[5] = Selectivity index, ratio of CC50 for human HeLa cells to IC50 for Coxsackievirus B3 isolate 97-927; type: toxicity; conditions: read-out: Ratio CC50/IC50
[6] = Selectivity index, ratio of CC50 for human HeLa cells to IC50 for Human rhinovirus 2; type: toxicity; conditions: read-out: Ratio CC50/IC50
Staphylococcus aureus = assay: Antibacterial activity against Staphylococcus aureus assessed as zone of inhibition at 50 ug/ml by agar disc diffusion method; type: functional; conditions: read-out: IZ
Escherichia coli = assay: Antibacterial activity against Escherichia coli assessed as zone of inhibition at 50 ug/ml by agar disc diffusion method; type: functional; conditions: read-out: IZ
[7] = biological target: T1, Muscarinic acetylcholine receptor M2 (Rattus norvegicus, UniProt P10980); assay: Agonist activity at rat M2 muscarinic receptor
T1 sequence (P10980 whole entry): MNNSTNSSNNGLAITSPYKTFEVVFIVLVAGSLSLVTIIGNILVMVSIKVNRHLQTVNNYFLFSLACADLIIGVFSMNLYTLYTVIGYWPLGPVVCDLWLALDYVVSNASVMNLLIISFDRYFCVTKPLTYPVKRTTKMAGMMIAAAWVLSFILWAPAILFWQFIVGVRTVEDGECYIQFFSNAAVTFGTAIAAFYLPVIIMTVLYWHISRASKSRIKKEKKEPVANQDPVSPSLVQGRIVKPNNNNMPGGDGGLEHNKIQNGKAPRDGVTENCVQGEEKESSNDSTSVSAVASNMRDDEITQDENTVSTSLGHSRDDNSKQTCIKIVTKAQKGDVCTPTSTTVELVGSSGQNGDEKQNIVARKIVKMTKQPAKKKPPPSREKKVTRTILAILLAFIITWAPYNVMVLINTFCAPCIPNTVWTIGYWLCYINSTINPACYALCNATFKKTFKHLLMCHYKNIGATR

[8] = biological target: T2, Muscarinic acetylcholine receptor M1 (Rattus norvegicus, UniProt P08482); assay: Agonist activity at rat M1 muscarinic receptor
T2 sequence (P08482 whole entry): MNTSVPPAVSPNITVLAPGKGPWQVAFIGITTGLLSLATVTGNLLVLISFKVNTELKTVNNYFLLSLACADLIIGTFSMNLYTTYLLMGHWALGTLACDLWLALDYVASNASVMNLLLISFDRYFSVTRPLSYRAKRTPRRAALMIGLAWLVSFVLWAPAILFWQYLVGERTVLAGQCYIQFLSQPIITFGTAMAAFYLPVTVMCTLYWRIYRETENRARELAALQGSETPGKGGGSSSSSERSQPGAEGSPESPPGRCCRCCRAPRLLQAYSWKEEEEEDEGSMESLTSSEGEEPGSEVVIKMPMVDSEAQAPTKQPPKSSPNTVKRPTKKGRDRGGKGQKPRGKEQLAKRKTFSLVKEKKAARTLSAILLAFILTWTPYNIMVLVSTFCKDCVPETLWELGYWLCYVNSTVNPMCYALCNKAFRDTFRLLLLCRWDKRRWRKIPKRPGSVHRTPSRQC

Coxsackievirus B3 = assay: Antiviral activity against Coxsackievirus B3; type: functional, organism-based; conditions: Enterovirus B
[9] = tested on: Human immunodeficiency virus 1; assay: Antiviral activity against HIV-1 assessed as reduction in multinucleated cells production at 25 ug/ml; type: functional; set-up: scale not given: the % may be the effect or the level left; conditions: dose 25 µg/ml
Mus musculus = species on record: Mus musculus; assay: Antithrombotic activity in Swiss mouse model of collagen and adrenaline-induced thrombosis assessed as increase in bleeding time; type: functional

Molecule CCc1cc(-c2oncc2-c2ccc(OC)cc2)c(O)cc1OC has an IC50 (MDA-MB-231) of 150 nM.

In the case of Cc1cc(C2CC3CCC2N3)on1 (stereo not given), the EC50 [1] is reported as 2600 nM.

With Cc1cc(NC2=CC(=O)C(C(=O)OC(C)(C)C)C(C)C2)no1 (stereo not given) the Ratio (Rattus norvegicus [2]) was >49.6.

For Cc1cc(C(=O)Nc2c(C)cccc2C)no1, the TD50 [3] was > 500 mg/kg and the ED50 (Rattus norvegicus [4]) was 5.5 mg/kg.

In the case of Clc1ccc([C@H]2CC3CCC2N3)cn1 (stereo not given in full), the EC50 [1] is reported as 520 nM.

With Cc1cc(CCCOc2ccc(-c3ccccc3C)cc2)on1 the selectivity ratio [5] was 2.6 and the selectivity ratio [6] was 57.5.

For CCOC(=O)C1C(c2c(OCc3ccccc3)c(Br)cc3c(Cl)c(Cl)c(=O)oc23)=NOC1c1ccc(C(F)(F)F)cc1 (stereo not given), the zone of inhibition at 50 µg/mL (Staphylococcus aureus) was 24 mm and the zone of inhibition at 50 µg/mL (Escherichia coli) was 20 mm.

For CCc1cc(-c2oncc2-c2ccc(Br)cc2)c(O)cc1OC, the IC50 (MDA-MB-231) was 50 nM.

For Cc1cc(CCCOc2ccc(-c3cccc(F)c3)cc2)on1, the selectivity ratio [5] was 2.9 and the selectivity ratio [6] was 230.

In the case of Cc1cc(NC(=O)c2c(C)cccc2C)on1, the TD50 [3] is reported as > 500 mg/kg and the ED50 (Rattus norvegicus [4]) is reported as 8.9 mg/kg.

For C#CCOc1noc2c1CNCCC2C (stereo not given), the EC50 [7] was > 51 µM and the EC50 [8] was 1300 nM.

In the case of Cc1cc(CCCOc2ccc(-c3ccc(F)cc3)cc2)on1, the selectivity ratio [5] is reported as > 37.3 and the selectivity ratio [6] is reported as > 5560.

Cc1cn(Cc2cc([C@@H](Cc3ccccc3)NC(=O)OC(C)(C)C)no2)c(=O)n(C(=O)c2ccccc2)c1=O gave an EC50 (Coxsackievirus B3) of 10.6 µg/mL (≈ 20 µM).

Molecule O=C(CBr)c1cc(-c2ccccc2)no1 has an Activity [9] of 95%.

N#Cc1ccc(CN(Cc2cc(-c3ccccc3Cl)on2)C(CCCNC(=N)N)C(N)=O)cc1 (stereo not given) gave an Activity (Mus musculus) of 87.5%.

Work on O=C(N[C@H](CO)[C@H](O)c1ccc([N+](=O)[O-])cc1)C(Cl)Cl [CHLORAMPHENICOL] yielded a zone of inhibition at 50 µg/mL (Staphylococcus aureus) of 23 mm and a zone of inhibition at 50 µg/mL (Escherichia coli) of 21 mm.

NC(=O)c1ncn([C@@H]2O[C@H](CO)[C@@H](O)[C@H]2O)n1 [RIBAVIRIN] gave an EC50 (Coxsackievirus B3) of 92.5 µg/mL (≈ 379 µM).
